According to patent publication US11535597B2, “Photoreactive ligands and uses thereof” (The Scripps Research Institute, priority 2017, dated 2022):
pIC50: −log10 of the molar value. “Also recorded” adds a separate entry of the source.

Legend:
PTGR2 [1] = biological target: T1, PTGR2 (Homo sapiens, UniProt Q8N8N7); assay: In vitro LCMS-based activity assay for PTGR2 (15-keto-PGE2 reductase activity); format: biochemical
Method: Aliquots (1 μL) of test compounds dissolved in DMSO were transferred to 1.5 mL eppendorf tubes followed by addition of recombinant human PTGR2 (44 μL, 200 nM final concentration) in freshly prepared reaction buffer (Tris Buffer, 1 mM EDTA, 50 μM TCEP, 300 μM NADPH). The resulting mixture was vortexed and then incubated at 37° C. for 20 min. Next, a 5 μL solution of 15-keto-PGE2 substrate (20 μM final concentration) in reaction buffer was added and the reaction was allowed to proceed for 30 min at 37° C. Reactions were quenched by the addition of 0.5% AcOH in ethyl acetate (800 μL), water (300 μL) and 100 μL of internal standard PGE2-d4 (30 pmol/sample) dissolved in 1:1 methanol/water. Phases were separated by centrifugation and the organic layer was collected and dried under a stream of N2, then stored at −80° C. until analysis. Directly prior to analysis, samples were reconstituted in 100 μL of MeCN:H2O (1:1, v/v) and analyzed by LC/MS/MS. All conditions were performed in triplicate and repeated at least three independent times.
The following MS parameters were used to measure the indicated metabolites by MRM (precursor ion, product ion, collision energy, polarity): PGE2-d4 (355, 275, 18), 13,14-dihydro-15-keto-PGE2 (351, 333, 18) and 15-keto-PGE2 (349, 161, 20). 15-keto-PGE2 and 13,14-dihydro-15-keto-PGE2 levels were quantified by determining peak areas in relation to internal standard PGE2-d4. Non-deuterated 15-keto-PGE2 and 13,14-dihydro-15-keto-PGE2 standards were used to confirm retention time and fragmentation.
All data fitting and statistical analysis performed using GraphPad Prism version 6.00 for Windows, GraphPad Software, La Jolla Calif. USA, www.graphpad.com. Statistical values including the exact n and statistical significance are also reported. Probe binding blockade and PTGR2 inhibition curves are plotted as mean±SD (n=3 or 4 per group) for a representative biological replicate using a variable slope (four parameter) non-linear fit. Gene expression data are presented as mean±SD (n=3 per group). HSC5 metabolite data are shown as mean±SD (n=3 per group). Statistical significance was defined as P<0.05 and determined by 2-tailed Student t tests, or two-way ANOVA with Bonferroni's post-tests.

PTGR2 [2] = biological target: T1, PTGR2; assay: PPARγ luciferase reporter assay in PTGR2-transfected HEK293T cells (15-keto-PGE2-dependent); format: cell-based; details: cells recombinantly expressing PTGR2
Method: HEK293T cells were transiently co-transfected using Polyethylenimine (Sigma) with a UAS-Luciferase reporter and a vector expressing the heterologous GAL4 DNA binding domain (DBD) or a GAL4 DNA binding domain::PPARγ ligand binding domain (LBD) chimeric protein, and full-length PTGR2. 24 hr after transfection, cells were treated either with vehicle (DMSO), 15k-PGE2 (20 μM), or fragment compounds. Rosiglitazone (2 μM), a synthetic PPARγ ligand, was used as control. 16 hr after incubation, cells were lysed in Cell Culture Lysis Reagent (Promega) and luciferase activity measured using the Luciferase Assay System (Promega).

T1 sequence (Q8N8N7 whole entry): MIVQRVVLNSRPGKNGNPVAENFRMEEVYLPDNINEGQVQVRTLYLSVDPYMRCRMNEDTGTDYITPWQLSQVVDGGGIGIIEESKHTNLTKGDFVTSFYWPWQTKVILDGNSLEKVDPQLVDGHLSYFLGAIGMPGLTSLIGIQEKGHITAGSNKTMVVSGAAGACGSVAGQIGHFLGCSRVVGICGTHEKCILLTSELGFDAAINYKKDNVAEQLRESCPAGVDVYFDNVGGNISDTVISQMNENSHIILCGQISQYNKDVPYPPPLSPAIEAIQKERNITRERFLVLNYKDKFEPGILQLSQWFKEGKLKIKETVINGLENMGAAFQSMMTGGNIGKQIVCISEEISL

SMILES: COc1ccccc1N1CCN(C(=O)Cc2ccccc2)CC1 [Compound 22, 1-(4-(2-Methoxyphenyl)piperazin-1-yl)-2-phenylethan-1-one]
- effect on 15-keto-PGE2 reductase (catalytic) activity of recombinant PTGR2 (PTGR2 [1]): inhibited
- increased potency relative to 20 (PTGR2 [1]; in assays measuring either competition of 8-labeling or 15-keto-PGE2 reductase activity of recombinant PTGR2): > 20 fold
- pIC50 (PTGR2 [1]; recombinant PTGR2, read-out: IC50 for inhibition of PTGR2-mediated reduction of 15-keto-PGE2 (15-keto-PGE2 reductase activity)): 6.22
- 15-keto-PGE2-dependent PPARγ transcriptional activity (PTGR2 [2]): increased; also recorded: concentration-dependent rescue
